Laboratory results taken from patent publication US20240174723A1, “STAPLED ANTIMICROBIAL PEPTIDES (STAMPS) AND USES THEREOF” (Lytica Therapeutics, Inc., priority 2021, published 2024).
In brackets after ≈: the same amount, converted by molar mass. One block for each compound: values may come before it. Positions of bridges follow the written chain, without caps; N, C: chain ends. Non-standard residues stand in square brackets, D forms with d. Residues, ends and D or L forms follow the SMILES beside them. PEG5 = NCCOCCOCCOCCOCCOCCC(=O)O; S5 = C=CCCC[C@](C)(N)C(=O)O

Legend:
[1] = tested on: S. aureus; type: cell-based, Staphylococcus aureus
Outline: (§1)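 MIC is the minimum StAMP concentration showing no visible growth after 20-24 h incubation at 37° C. Serially diluted peptides met bacteria regrown 3-4 h after overnight culture, at 5×10^5 CFU/ml final, in Mueller-Hinton broth or its cation-adjusted form, per a modified CLSI microdilution.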

[2] = in vitro; type: cell-based; conditions: human, Inhibitory Concentration at 50% Cytotoxicity (IC50) Human Liver Cells (HepG2)
Outline: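 Cytotoxicity read by CellTiter-Glo luminescence after 48 h at 37 °C exposure to serially diluted StAMPs or vehicle. HepG2 cells were grown in EMEM plus 10% FBS and given 4 h to attach before dosing; peptides came from a 5 mg/mL aqueous stock.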

[3] = tested on: E. coli; type: cell-based, Escherichia coli
Outline: as §1

[4] = tested on: K. pneumoniae; type: cell-based, Klebsiella pneumoniae
Outline: as §1

[5] = tested on: P. aeruginosa; type: cell-based, Pseudomonas aeruginosa
Outline: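 MIC taken as lowest peptide concentration with no visible growth after 20-24 h at 37 °C. Peptide serial dilutions from water stocks met P. aeruginosa inoculum (5×10^5 CFU/ml final) in MHB or MHB II, per a CLSI-adapted microbroth protocol.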

[6] = in vitro; type: cell-based; conditions: human
Procedure: Cell culture: RPTEC were maintained in MEM media supplemented with growth factors. HEPG2 cell line was maintained in Eagle's Minimum Essential Medium (EMEM) supplemented with fetal bovine serum to a final concentration of 10%.
90 minute cytotoxicity assay: Cells were plated in a 96-well format, and after overnight incubation, media was replaced with fresh media. Serial dilutions of StAMPs from a 5 mg/mL water stock, or vehicle, were added to the cells in a final volume of 100 μl. After incubating at 37° C. for 90 min, 50 μl of cell culture media was transferred to a clear 96-well plate, incubated with 50 μl of lactate dehydrogenase (LDH) assay reagent for 10 min, and absorbance measured at 490 nm on a microplate reader.
Renal toxicity was measured after 90 minutes of incubation, while liver toxicity was measured after 48 hours of incubation with StAMPs. N/A=not tested. The following apply to all peptides (i.e., StAMPs) listed in Tables A-C: Crosslinks (X^1—X^2 and X^3—X^4): (alk); N-terminus: —NH2; C-terminus: amidated with —NH2; counterion: Cl^−. The following apply to all peptides (i.e., StAMPs) listed in Table D: Crosslinks (X^1—X^2 and X^3—X^4): (alk); N-terminus: —NH2; C-terminus: as shown in table; counterion: Cl^−.
StAMP Micelle Formulation: DSPE-MPEG(2000) was suspended in buffered saline at 50-100 mg/mL overnight. StAMP stock solutions at 5-20 mg/mL in buffered saline were prepared and equal volumes of micelle and StAMP stock solution were mixed at the desired StAMP:Lipid ratio. Suspensions were allowed to sit for 5-10 minutes at room temperature before being used in in vitro and in vivo assays.
In Table E, the StAMP is StAMP 4 (Table A) and “Lipid”=DSPE-MPEG(2000).

[7] = tested on: A. baumannii; type: cell-based, Acinetobacter baumannii
Outline: as §1

SMILES: CC(C)[C@@H]1NC(=O)[C@@](C)(NC(=O)[C@H](C)NC(=O)[C@H](CCCCN)NC(=O)CNC(=O)[C@H](Cc2ccccc2)NC(=O)[C@H](CCCCN)NC(=O)[C@H](CCCCN)NC(=O)[C@H](CCCCN)NC(=O)[C@H](CCCCN)NC(=O)[C@H](CCCCN)NC(=O)[C@]2(C)CCCC=CCCC[C@](C)(NC(=O)CN)C(=O)NCC(=O)N[C@@H](CCCCN)C(=O)N[C@@H](Cc3ccccc3)C(=O)N2)CCCC=CCCC[C@@](C)(C(=O)N[C@@H](C)C(=O)N[C@@H](CCCCN)C(=O)N[C@@H](CCCCN)C(N)=O)NC(=O)[C@H](CCC(=O)O)NC(=O)CNC1=O [compound 4] (H-G[S5]GKF[S5]KKKKKFGKA[S5]VGE[S5]AKK-NH2; staple 2-6, 16-20)
Minimum Inhibitory Concentration (MIC) S. aureus [1]: >64 µg/mL
IC50 at 48 hours [2]: 127 µg/mL (≈ 49.5 µM)
Minimum Inhibitory Concentration (MIC) E. coli [3]: 2 µg/mL
Minimum Inhibitory Concentration (MIC) K. pneumoniae [4]: 6 µg/mL
Minimum Inhibitory Concentration (MIC) P. aeruginosa [5]: 3 µg/mL
IC50 at 90 min [6]: 105 µg/mL (≈ 40.9 µM)
Minimum Inhibitory Concentration (MIC) A. baumannii [7]: 3 µg/mL

SMILES: CC(C)[C@@H]1NC(=O)[C@@](C)(NC(=O)[C@H](C)NC(=O)[C@H](CCCCN)NC(=O)CNC(=O)[C@H](Cc2ccccc2)NC(=O)[C@H](CCCCN)NC(=O)[C@H](CCCCN)NC(=O)[C@H](CCCCN)NC(=O)[C@H](CO)NC(=O)[C@H](CCCCN)NC(=O)[C@]2(C)CCCC=CCCC[C@](C)(NC(=O)CN)C(=O)NCC(=O)N[C@@H](CCCCN)C(=O)N[C@@H](Cc3ccccc3)C(=O)N2)CCCC=CCCC[C@@](C)(C(=O)N[C@@H](C)C(=O)N[C@@H](CCCCN)C(=O)N[C@@H](CCCCN)C(N)=O)NC(=O)[C@H](CCC(=O)O)NC(=O)CNC1=O [compound 2] (H-G[S5]GKF[S5]KSKKKFGKA[S5]VGE[S5]AKK-NH2; staple 2-6, 16-20)
Minimum Inhibitory Concentration (MIC) S. aureus [1]: 64 µg/mL
IC50 at 48 hours [2]: 143 µg/mL (≈ 56.7 µM)
Minimum Inhibitory Concentration (MIC) E. coli [3]: 2 µg/mL
Minimum Inhibitory Concentration (MIC) K. pneumoniae [4]: 4 µg/mL
Minimum Inhibitory Concentration (MIC) P. aeruginosa [5]: 4 µg/mL
IC50 at 90 min [6]: 116 µg/mL (≈ 46 µM)
Minimum Inhibitory Concentration (MIC) A. baumannii [7]: 2 µg/mL

SMILES: CC(C)[C@@H]1NC(=O)[C@@](C)(NC(=O)[C@H](C)NC(=O)[C@H](CCCCN)NC(=O)CNC(=O)[C@H](Cc2ccccc2)NC(=O)[C@H](CCCCN)NC(=O)[C@H](CCCCN)NC(=O)[C@H](CCCCN)NC(=O)[C@H](CO)NC(=O)[C@H](Cc2c[nH]cn2)NC(=O)[C@]2(C)CCCC=CCCC[C@](C)(NC(=O)CN)C(=O)NCC(=O)N[C@@H](CCCCN)C(=O)N[C@@H](Cc3ccccc3)C(=O)N2)CCCC=CCCC[C@@](C)(C(=O)N[C@@H](C)C(=O)N[C@@H](CCCCN)C(=O)N[C@@H](CCCCN)C(N)=O)NC(=O)[C@H](CCC(=O)O)NC(=O)CNC1=O [compound 1] (H-G[S5]GKF[S5]HSKKKFGKA[S5]VGE[S5]AKK-NH2; staple 2-6, 16-20)
Minimum Inhibitory Concentration (MIC) S. aureus [1]: >64 µg/mL
IC50 at 48 hours [2]: 391 µg/mL (≈ 154 µM)
Minimum Inhibitory Concentration (MIC) E. coli [3]: 2 µg/mL
Minimum Inhibitory Concentration (MIC) K. pneumoniae [4]: 32 µg/mL
Minimum Inhibitory Concentration (MIC) P. aeruginosa [5]: 8 µg/mL
IC50 at 90 min [6]: 294 µg/mL (≈ 116 µM)
Minimum Inhibitory Concentration (MIC) A. baumannii [7]: 2 µg/mL

Further lines, with some results ahead:

Minimum Inhibitory Concentration (MIC) S. aureus [1]: >64 µg/mL
Minimum Inhibitory Concentration (MIC) E. coli [3]: 4 µg/mL
Minimum Inhibitory Concentration (MIC) K. pneumoniae [4]: 8 µg/mL
Minimum Inhibitory Concentration (MIC) P. aeruginosa [5]: 4 µg/mL
IC50 at 90 min [6]: > 200 µg/mL
Minimum Inhibitory Concentration (MIC) A. baumannii [7]: 2 µg/mL
SMILES: CC(C)[C@@H]1NC(=O)[C@@](C)(NC(=O)[C@H](C)NC(=O)[C@H](CCCCN)NC(=O)CNC(=O)[C@H](Cc2ccccc2)NC(=O)[C@H](CCCCN)NC(=O)[C@H](CCCCN)NC(=O)[C@H](CCCCN)NC(=O)[C@H](CCCCN)NC(=O)[C@H](CCCCN)NC(=O)[C@]2(C)CCCC=CCCC[C@](C)(NC(=O)CN)C(=O)NCC(=O)N[C@@H](CCCCN)C(=O)N[C@@H](Cc3ccccc3)C(=O)N2)CCCC=CCCC[C@@](C)(C(=O)N[C@@H](C)C(=O)N[C@@H](CCCCN)C(=O)N[C@@H](CCCCN)C(=O)NCCOCCOCCOCCOCCOCCC(N)=O)NC(=O)[C@H](CCC(=O)O)NC(=O)CNC1=O [compound 75] (H-G[S5]GKF[S5]KKKKKFGKA[S5]VGE[S5]AKK[PEG5]-NH2; staple 2-6, 16-20)
IC50 at 48 hours [2]: 357 µg/mL (≈ 125 µM)

Minimum Inhibitory Concentration (MIC) S. aureus [1]: >64 µg/mL
Minimum Inhibitory Concentration (MIC) E. coli [3]: 2 µg/mL
Minimum Inhibitory Concentration (MIC) K. pneumoniae [4]: 4 µg/mL
Minimum Inhibitory Concentration (MIC) P. aeruginosa [5]: 4 µg/mL
IC50 at 90 min [6]: 214 µg/mL (≈ 81.6 µM)
Minimum Inhibitory Concentration (MIC) A. baumannii [7]: 2 µg/mL
SMILES: CC(C)[C@@H]1NC(=O)[C@@](C)(NC(=O)[C@H](C)NC(=O)[C@H](CCCCN)NC(=O)CNC(=O)[C@H](Cc2ccccc2)NC(=O)[C@H](CCCCN)NC(=O)[C@H](CCCCN)NC(=O)[C@H](CCCCN)NC(=O)[C@H](CO)NC(=O)[C@H](Cc2c[nH]cn2)NC(=O)[C@]2(C)CCCC=CCCC[C@](C)(NC(=O)CN)C(=O)NCC(=O)N[C@@H](CCCCN)C(=O)N[C@@H](Cc3ccccc3)C(=O)N2)CCCC=CCCC[C@@](C)(C(=O)N[C@@H](C)C(=O)N[C@@H](CCCCN)C(=O)N[C@@H](CCCCN)C(N)=O)NC(=O)[C@H](CCC(=O)O)NC(=O)[C@H](Cc2ccccc2)NC1=O [compound 14] (H-G[S5]GKF[S5]HSKKKFGKA[S5]VFE[S5]AKK-NH2; staple 2-6, 16-20)
IC50 at 48 hours [2]: 222 µg/mL (≈ 84.7 µM)

Minimum Inhibitory Concentration (MIC) S. aureus [1]: >64 µg/mL
Minimum Inhibitory Concentration (MIC) E. coli [3]: 16 µg/mL
Minimum Inhibitory Concentration (MIC) K. pneumoniae [4]: >64 µg/mL
Minimum Inhibitory Concentration (MIC) P. aeruginosa [5]: 32 µg/mL
IC50 at 90 min [6]: > 200 µg/mL
Minimum Inhibitory Concentration (MIC) A. baumannii [7]: 8 µg/mL
SMILES: CC(C)[C@@H]1NC(=O)[C@@](C)(NC(=O)[C@H](C)NC(=O)[C@H](CCCCN)NC(=O)CNC(=O)[C@H](Cc2ccccc2)NC(=O)[C@H](CCCCN)NC(=O)[C@H](CCCCN)NC(=O)[C@H](CCCCN)NC(=O)[C@H](CO)NC(=O)[C@H](Cc2c[nH]cn2)NC(=O)[C@]2(C)CCCC=CCCC[C@](C)(NC(=O)CN)C(=O)NCC(=O)N[C@@H](Cc3c[nH]c4ccccc34)C(=O)N[C@@H](Cc3ccccc3)C(=O)N2)CCCC=CCCC[C@@](C)(C(=O)N[C@@H](C)C(=O)N[C@@H](CCCCN)C(=O)N[C@@H](CCCCN)C(N)=O)NC(=O)[C@H](CCC(=O)O)NC(=O)CNC1=O [compound 58] (H-G[S5]GWF[S5]HSKKKFGKA[S5]VGE[S5]AKK-NH2; staple 2-6, 16-20)
IC50 at 48 hours [2]: > 200 µg/mL

Minimum Inhibitory Concentration (MIC) S. aureus [1]: >64 µg/mL
Minimum Inhibitory Concentration (MIC) E. coli [3]: 2 µg/mL
Minimum Inhibitory Concentration (MIC) K. pneumoniae [4]: 4 µg/mL
Minimum Inhibitory Concentration (MIC) P. aeruginosa [5]: 4 µg/mL
IC50 at 90 min [6]: 251 µg/mL (≈ 96 µM)
Minimum Inhibitory Concentration (MIC) A. baumannii [7]: 2 µg/mL
SMILES: CC(C)[C@@H]1NC(=O)[C@H](C(C)C)NC(=O)[C@@](C)(NC(=O)[C@H](C)NC(=O)[C@H](CCCCN)NC(=O)CNC(=O)[C@H](Cc2ccccc2)NC(=O)[C@H](CCCCN)NC(=O)[C@H](CCCCN)NC(=O)[C@H](CCCCN)NC(=O)[C@H](CCCCN)NC(=O)[C@H](Cc2c[nH]cn2)NC(=O)[C@]2(C)CCCC=CCCC[C@](C)(NC(=O)CN)C(=O)NCC(=O)N[C@@H](CCCCN)C(=O)N[C@@H](Cc3ccccc3)C(=O)N2)CCCC=CCCC[C@@](C)(C(=O)N[C@@H](C)C(=O)N[C@@H](CCCCN)C(=O)N[C@@H](CCCCN)C(N)=O)NC(=O)[C@H](CCC(=O)O)NC1=O [compound 21] (H-G[S5]GKF[S5]HKKKKFGKA[S5]VVE[S5]AKK-NH2; staple 2-6, 16-20)
IC50 at 48 hours [2]: 208 µg/mL (≈ 79.5 µM)
